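A five-concentration, 48-hour dose response in 96-well plates underlies each endpoint, interpolated linearly between surrounding concentrations. Here, GI50 denotes the concentration required for 50% inhibition of growth. TGI: concentration producing complete growth inhibition.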
What was measured:
Experiment in all cases: inhibition of tumour cell growth, NCI panel, 48 h
RPMI-8226 leukemia = system: RPMI-8226 leukemia
SF-295 CNS = system: SF-295 CNS
HOP-92 NSCLC = system: HOP-92 NSCLC
HS 578T breast = system: HS 578T breast
HCC-2998 colon = system: HCC-2998 colon
UACC-62 melanoma = system: UACC-62 melanoma
M14 melanoma = system: M14 melanoma
SW-620 colon = system: SW-620 colon
IGROV1 ovarian = system: IGROV1 ovarian
UACC-257 melanoma = system: UACC-257 melanoma
SK-MEL-5 melanoma = system: SK-MEL-5 melanoma
SN12C renal = system: SN12C renal
NCI-H226 lung = system: NCI-H226 lung
MDA-MB-435 = system: MDA-MB-435
HL-60(TB) leukemia = system: HL-60(TB) leukemia
CAKI-1 renal = system: CAKI-1 renal
NCI-H522 lung = system: NCI-H522 lung
HCT-15 colon = system: HCT-15 colon
MDA-MB-231 breast = system: MDA-MB-231 breast
OVCAR-8 ovarian = system: OVCAR-8 ovarian
MALME-3M melanoma = system: MALME-3M melanoma
LOX IMVI melanoma = system: LOX IMVI melanoma
PC-3 prostate = system: PC-3 prostate
A498 renal = system: A498 renal
DU-145 prostate = system: DU-145 prostate
A549 NSCLC = system: A549 NSCLC
HCT-116 colon = system: HCT-116 colon
BT-549 breast = system: BT-549 breast
U251 CNS = system: U251 CNS

Q: For `O=C1NC(=N[C@@H](CO)c2ccccc2)S/C1=C\c1ccc2ncccc2c1`, which GI50 (RPMI-8226 leukemia) is on record?
A: 8.16 µM

Q: What about the TGI (RPMI-8226 leukemia) of the same molecule?
A: > 25 µM

Q: And the GI50 (SF-295 CNS)?
A: 14.4 µM

Q: And the TGI (SF-295 CNS)?
A: > 25 µM

Q: And the GI50 (HOP-92 NSCLC)?
A: 11.1 µM

Q: And the TGI (HOP-92 NSCLC)?
A: > 25 µM

Q: And the GI50 (HS 578T breast)?
A: 4.84 µM

Q: And the TGI (HS 578T breast)?
A: > 25 µM

Q: What about the GI50 (HCC-2998 colon) of the same molecule?
A: 11.2 µM

Q: And the TGI (HCC-2998 colon)?
A: > 25 µM

Q: And the GI50 (UACC-62 melanoma)?
A: 10.4 µM

Q: And the TGI (UACC-62 melanoma)?
A: > 25 µM

Q: What about the GI50 (M14 melanoma) of the same molecule?
A: 6.16 µM

Q: What about the TGI (M14 melanoma) of the same molecule?
A: > 25 µM

Q: And the GI50 (SW-620 colon)?
A: 7.25 µM

Q: And the TGI (SW-620 colon)?
A: > 25 µM

Q: What about the GI50 (IGROV1 ovarian) of the same molecule?
A: 4.71 µM

Q: And the TGI (IGROV1 ovarian)?
A: > 18.3 µM

Q: And the GI50 (UACC-257 melanoma)?
A: 13.9 µM

Q: What about the TGI (UACC-257 melanoma) of the same molecule?
A: > 25 µM

Q: And the GI50 (SK-MEL-5 melanoma)?
A: 9.14 µM

Q: And the TGI (SK-MEL-5 melanoma)?
A: > 25 µM

Q: What about the GI50 (SN12C renal) of the same molecule?
A: 8.1 µM

Q: And the TGI (SN12C renal)?
A: > 25 µM

Q: And the GI50 (NCI-H226 lung)?
A: 11.7 µM

Q: And the TGI (NCI-H226 lung)?
A: > 25 µM

Q: And the GI50 (MDA-MB-435)?
A: 3.65 µM

Q: What about the TGI (MDA-MB-435) of the same molecule?
A: 15.3 µM

Q: What about the GI50 (HL-60(TB) leukemia) of the same molecule?
A: 6.07 µM

Q: What about the TGI (HL-60(TB) leukemia) of the same molecule?
A: 19.4 µM

Q: And the GI50 (CAKI-1 renal)?
A: 3.06 µM

Q: And the TGI (CAKI-1 renal)?
A: > 25 µM

Q: What about the GI50 (NCI-H522 lung) of the same molecule?
A: 5.93 µM

Q: And the TGI (NCI-H522 lung)?
A: > 20 µM

Q: And the GI50 (HCT-15 colon)?
A: 6.19 µM

Q: And the TGI (HCT-15 colon)?
A: > 25 µM

Q: And the GI50 (MDA-MB-231 breast)?
A: > 23.1 µM

Q: And the TGI (MDA-MB-231 breast)?
A: > 25 µM

Q: What about the GI50 (OVCAR-8 ovarian) of the same molecule?
A: 8.93 µM

Q: And the TGI (OVCAR-8 ovarian)?
A: > 25 µM

Q: And the GI50 (MALME-3M melanoma)?
A: 13.4 µM

Q: What about the TGI (MALME-3M melanoma) of the same molecule?
A: > 25 µM

Q: And the GI50 (LOX IMVI melanoma)?
A: 6.15 µM

Q: What about the TGI (LOX IMVI melanoma) of the same molecule?
A: > 18.3 µM

Q: What about the GI50 (PC-3 prostate) of the same molecule?
A: > 25 µM

Q: And the TGI (PC-3 prostate)?
A: > 25 µM

Q: And the GI50 (A498 renal)?
A: 4.29 µM

Q: What about the TGI (A498 renal) of the same molecule?
A: > 21.9 µM

Q: And the GI50 (DU-145 prostate)?
A: 13.8 µM

Q: And the TGI (DU-145 prostate)?
A: > 25 µM

Q: What about the GI50 (A549 NSCLC) of the same molecule?
A: 9.83 µM

Q: What about the TGI (A549 NSCLC) of the same molecule?
A: > 25 µM

Q: What about the GI50 (HCT-116 colon) of the same molecule?
A: 5.22 µM

Q: What about the TGI (HCT-116 colon) of the same molecule?
A: > 25 µM

Q: What about the GI50 (BT-549 breast) of the same molecule?
A: 4.07 µM

Q: And the TGI (BT-549 breast)?
A: > 18.5 µM

Q: What about the GI50 (U251 CNS) of the same molecule?
A: 11 µM

From PubChem BioAssay (NCI)
